# In patent US20240174638A1, “HETEROARYL DERIVATIVES AS APELIN RECEPTOR AGONISTS” (RESEARCH TRIANGLE INSTITUTE, priority 2021, published 2024):
# Legend:
# [1] = tested on: Mouse plasma protein; conditions: 6 h, 1 μM
# [2] = in vitro; conditions: rat, pH 7.4
# [3] = tested on: BLEO-induced lung fibrosis in male C57BL/6 mice; assay: Chronic (21-day) bleomycin-induced lung fibrosis model, prophylactic (Px) and therapeutic (Tx) arms; type: in vivo, mouse; conditions: for 21-day survival rate: BLEO-instilled mice
# [4] = tested on: Human plasma protein; conditions: 6 h, 1 μM
# [5] = in vitro; conditions: human
# [6] = tested on: bleomycin-induced pulmonary fibrosis in C57BL/6 mice; assay: 21-day non-GLP prophylactic bleomycin-induced pulmonary fibrosis study (oropharyngeal bleomycin; lung weight, BAL leukocytes); type: in vivo, mouse
# Procedure: The objective of this non-GLP study was to evaluate the prophylactic efficacy of EXAMPLE 22 in a 21-day model of bleomycin-induced pulmonary fibrosis in mice.
# Mice were administered bleomycin (Catalog number C-61703-323-22, lot number D011495AA, Hospira) via oropharyngeal route to induce lung fibrosis.
# Bleomycin-induced animals were treated twice daily with either of the three different doses of EXAMPLE 22 or pirfenidone starting from a day prior to disease induction and continued till study termination. Study animals were harvested on day 21 post-bleomycin administration. As an end point analysis, fibrosis symptoms such as body weight, absolute lung weight, lung weight normalized to body weight, and total leukocytes in BAL fluid were evaluated and compared with vehicle-treated mice.
# One week prior to study initiation, 88 C57BL/6 mice, six to eight weeks of age were obtained from Simonsen Laboratories (Gilroy, CA). Animals were weighed prior to study initiation and 60 animals were randomized into groups such that mean body weights were similar for the different groups. Remaining animals with lower or higher body weight were not included into the study. Food and water was provided ad libitum, with a light/dark cycle of 12 hours.
# [7] = tested on: Rat plasma protein; conditions: 6 h, 1 μM
# [8] = tested on: Salmonella typhimurium (TA98, TA100, TA1535 and TA1537)
# [9] = relative to Vehicle-treated BLEO-instilled controls
# [10] = prophylactic treatment twice daily, 21-day
structure (smiles),measurement,setting,value
"O=C(O)C[C@H](CCN1CCCC(F)(F)C1)NC(=O)c1cc(-c2ccccc2C(F)(F)F)n(-c2nccs2)n1 [Example 22, (3S)-5-(3,3-difluoropiperidin-1-yl)-3-{[1-(1,3-thiazol-2-yl)-5-[2-(trifluoromethyl)phenyl]-1H-pyrazol-3-yl]formamido}pentanoic acid]",% Protein Bound Rep 1,[1],92.07%
same,% Protein Bound Rep 2,[1],90.96%
same,% Protein Bound Rep 3,[1],91.91%
same,Buffer Concentration Rep 1,[1],67.1 nM
same,Buffer Concentration Rep 2,[1],79.3 nM
same,Buffer Concentration Rep 3,[1],67.6 nM
same,Mean % Protein Bound,[1],91.60%
same,Plasma Concentration Rep 1,[1],846.3 nM
same,Plasma Concentration Rep 2,[1],877.0 nM
same,Plasma Concentration Rep 3,[1],835.8 nM
same,"recovery at 6 h, 1 μM",[2],72.7%
same,composite Tissue Collagen Fraction (TCF),"[3]; 15 mpk/day Px EXAMPLE 22, Vehicle 5.58±0.34%",4.51±0.31%
same,21-day survival rate,[3]; 15 mpk Px EXAMPLE 22 (p.o. BID),91%
same,21-day survival rate,[3]; 30 mpk Px EXAMPLE 22 (p.o. BID),91%
same,21-day survival rate,[3]; 60 mpk Px EXAMPLE 22 (p.o. BID),92%
same,21-day survival rate,"[3]; Tx EXAMPLE 22 60 mpk (p.o. BID, from 5 days post-BLEO)",100%
same,ΔBW,"[3]; D0-D21, relative to Vehicle-treated BLEO-instilled controls",Neither EXAMPLE 22 nor PIRF affected
same,"end-point readouts for fibrosis, overall",[3]; overall conclusion of the study,positive impact on one or more end-point readouts
same,LW indexed to tibia length (LW:TL),[3]; [9],Neither EXAMPLE 22 nor PIRF affected
same,endpoint lung OH-P content,[3]; [9],Neither EXAMPLE 22 nor PIRF affected
same,endpoint lung weight (LW),[3]; [9],Neither EXAMPLE 22 nor PIRF affected
same,final BW,[3]; [9],Neither EXAMPLE 22 nor PIRF affected
same,serial BW,[3]; [9],Neither EXAMPLE 22 nor PIRF affected
same,% Protein Bound Rep 1,[4],36.79%
same,% Protein Bound Rep 2,[4],90.21%
same,% Protein Bound Rep 3,[4],87.89%
same,Buffer Concentration Rep 1,[4],80.7 nM
same,Buffer Concentration Rep 2,[4],70.2 nM
same,Buffer Concentration Rep 3,[4],81.2 nM
same,Mean % Protein Bound,[4],88.29%
same,Plasma Concentration Rep 1,[4],611.0 nM
same,Plasma Concentration Rep 2,[4],717.1 nM
same,Plasma Concentration Rep 3,[4],670.6 nM
same,"recovery at 6 h, 1 μM",[5],74.4%
same,effectiveness compared across doses,[6]; 30 mg/kg,somewhat more effective
same,normalized lung weights,"[6]; normalized to body weight, prophylactic treatment twice daily, 21-day",reduced absolute and normalized lung weights
same,absolute lung weights,[6]; [10],reduced absolute and normalized lung weights
same,total number of leukocytes from bronchoalveolar lavage (BAL) fluid,[6]; [10],decreased total number of leukocytes
same,overt symptoms associated with bleomycin administration,"[6]; prophylactic treatment twice daily, 21-day non-GLP study",improved the overt symptoms
same,% Protein Bound Rep 1,[7],91.63%
same,% Protein Bound Rep 2,[7],90.98%
same,% Protein Bound Rep 3,[7],92.73%
same,Buffer Concentration Rep 1,[7],49.3 nM
same,Buffer Concentration Rep 2,[7],62.3 nM
same,Buffer Concentration Rep 3,[7],53.6 nM
same,Mean % Protein Bound,[7],91.78%
same,Plasma Concentration Rep 1,[7],588.6 nM
same,Plasma Concentration Rep 2,[7],690.6 nM
same,Plasma Concentration Rep 3,[7],737.4 nM
same,Cytotoxicity Code,[8],N
same,cytotoxicity to tester strains,[8],No cytotoxicity was observed
same,dose related increase of revertant colonies,[8],No dose related increase
same,precipitate in Mini-Ames assay,[8],No precipitate was observed
